Read-outs that look alike come from different tables or passages of the source.
Tests used:
Jily = experiment: MTS proliferation assay, Jily; type: cell-based; details: 72 h incubation, read-out: MTS proliferation assay IC 50 Jily
Summary of the method: (§1)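 Proliferation is followed by MTS conversion, measured as absorbance at 492 nm. Cells are exposed for 72 h to four fixed compound concentrations (10 μM down to 0.3 μM) under 37° C, 7.5% CO2 culture conditions.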

MRC5 = experiment: MTS proliferation assay, MRC5; type: cell-based; details: MRC5, 72 h incubation, read-out: MTS proliferation assay IC 50 MRC5
Summary of the method: as §1

HT1080 = experiment: MTS proliferation assay, HT1080; type: cell-based, human; details: HT1080, 72 h incubation, read-out: MTS proliferation assay IC 50 HT1080
Summary of the method: (§2)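 A 72 h exposure to compound (final 0.3–10 μM, four levels) was followed by 3 h MTS incubation and an A492 read.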

[1] = tested on: adherent cells or suspension cells; experiment: Hoechst 33342 nuclear staining (fraction of apoptotic nuclei); type: cell-based; set-up: key: 0 relating to no activity; 1 relating to weak activity comprising less than 70% of the cells; score 2 relating to strong activity comprising more than 70% of the cells
HeLa = experiment: MTS proliferation assay, HeLa; type: cell-based, human; details: 72 h incubation, read-out: MTS proliferation assay IC 50 HeLa
Summary of the method: as §2

Jurkat = experiment: MTS proliferation assay, Jurkat; type: cell-based, human; details: 72 h incubation, read-out: MTS proliferation assay IC 50 Jurkat
Summary of the method: as §2

Compound	IC50 (Jily)	Hoechst 33342 nuclear staining score ([1]; H460, conc 0.01 μm)	Hoechst 33342 nuclear staining score ([1]; H460, conc 0.1 μm)	Hoechst 33342 nuclear staining score ([1]; H460, conc 1 μm)	Hoechst 33342 nuclear staining score ([1]; HeLa, conc 0.01 μm)	Hoechst 33342 nuclear staining score ([1]; HeLa, conc 0.1 μm)	Hoechst 33342 nuclear staining score ([1]; HeLa, conc 1 μm)	Hoechst 33342 nuclear staining score ([1]; Jily, conc 0.01 μm)	Hoechst 33342 nuclear staining score ([1]; Jily, conc 0.1 μm)	Hoechst 33342 nuclear staining score ([1]; Jily, conc 1 μm)	Hoechst 33342 nuclear staining score ([1]; Jurkat, conc 0.01 μm)	Hoechst 33342 nuclear staining score ([1]; Jurkat, conc 0.1 μm)	Hoechst 33342 nuclear staining score ([1]; Jurkat, conc 1 μm)	Hoechst 33342 nuclear staining score ([1]; MRC5, conc 0.01 μm)	Hoechst 33342 nuclear staining score ([1]; MRC5, conc 0.1 μm)	Hoechst 33342 nuclear staining score ([1]; MRC5, conc 1 μm)	Hoechst 33342 nuclear staining score ([1]; PBLs, conc 0.01 μm)	Hoechst 33342 nuclear staining score ([1]; PBLs, conc 0.1 μm)	Hoechst 33342 nuclear staining score ([1]; PBLs, conc 1 μm)	IC50 (MRC5)	also measured
Nc1cc(C(=O)Cn2c(-c3nonc3N)nc3ccccc32)ccc1Cl [Example 14, 4-[1-(3-Amino-4-chlorophenacyl)-1H-benzimidazol-2-yl]-furazan-3-ylamine]	0.01 to 0.1 µM	0	2 (score 2 relating to strong activity comprising more than 70% of the cells)	2 (score 2 relating to strong activity comprising more than 70% of the cells)	0	1 (1 relating to weak activity comprising less than 70% of the cells)	2 (score 2 relating to strong activity comprising more than 70% of the cells)	0	2 (score 2 relating to strong activity comprising more than 70% of the cells)	2 (score 2 relating to strong activity comprising more than 70% of the cells)	0	2 (score 2 relating to strong activity comprising more than 70% of the cells)	2 (score 2 relating to strong activity comprising more than 70% of the cells)	0	1 (1 relating to weak activity comprising less than 70% of the cells)	2 (score 2 relating to strong activity comprising more than 70% of the cells)	0	0	0		IC50 (MRC5; Homo sapiens): 0.01 to 0.1 µM; IC50 (HT1080; Homo sapiens, HT-1080): 0.01 to 0.1 µM; IC50 (HeLa; Homo sapiens): 0.01 to 0.1 µM; IC50 (Jurkat; Homo sapiens): 0.01 to 0.1 µM
COCOc1ccc(C(=O)Cn2c(-c3nonc3N)nc3ccccc32)cc1OC [Example 15, 4-[1-(3-Methoxy-4-methoxymethoxy-phenacyl)-1H-benzimidazol-2-yl]-furazan-3-ylamine]	< 0.01 µM	2 (score 2 relating to strong activity comprising more than 70% of the cells)	2 (score 2 relating to strong activity comprising more than 70% of the cells)	2 (score 2 relating to strong activity comprising more than 70% of the cells)	1 (1 relating to weak activity comprising less than 70% of the cells)	2 (score 2 relating to strong activity comprising more than 70% of the cells)	2 (score 2 relating to strong activity comprising more than 70% of the cells)	2 (score 2 relating to strong activity comprising more than 70% of the cells)	2 (score 2 relating to strong activity comprising more than 70% of the cells)	2 (score 2 relating to strong activity comprising more than 70% of the cells)	2 (score 2 relating to strong activity comprising more than 70% of the cells)	2 (score 2 relating to strong activity comprising more than 70% of the cells)	2 (score 2 relating to strong activity comprising more than 70% of the cells)	0	1 (1 relating to weak activity comprising less than 70% of the cells)	2 (score 2 relating to strong activity comprising more than 70% of the cells)	0	0	0		IC50 (MRC5; Homo sapiens): < 0.01 µM; IC50 (HT1080; Homo sapiens, HT-1080): < 0.01 µM; IC50 (HeLa; Homo sapiens): 0.01 to 0.1 µM; IC50 (Jurkat; Homo sapiens): < 0.01 µM
Nc1nonc1-c1nc2ccccc2n1CC(=O)c1ccc(Cl)cc1Cl [Example 31]	0.1 to 1 µM	0	0	0	0	0	0				0	0	1 (1 relating to weak activity comprising less than 70% of the cells)	0	0	0	0	0	0	0.1 to 1 µM	IC50 (HT1080): > 1 µM; IC50 (HeLa): 0.1 to 1 µM; IC50 (Jurkat): 0.1 to 1 µM
Nc1nonc1-c1nc2ccccc2n1CC(=O)c1cccc(Cl)c1 [Example 35]	0.01 to 0.1 µM	0	0	2 (score 2 relating to strong activity comprising more than 70% of the cells)	0	0	2 (score 2 relating to strong activity comprising more than 70% of the cells)	0	1 (1 relating to weak activity comprising less than 70% of the cells)	2 (score 2 relating to strong activity comprising more than 70% of the cells)	0	2 (score 2 relating to strong activity comprising more than 70% of the cells)	2 (score 2 relating to strong activity comprising more than 70% of the cells)	0	2 (score 2 relating to strong activity comprising more than 70% of the cells)	2 (score 2 relating to strong activity comprising more than 70% of the cells)	0	0	0	0.1 to 1 µM	IC50 (HT1080): 0.1 to 1 µM; IC50 (HeLa): 0.01 to 0.1 µM; IC50 (Jurkat): 0.01 to 0.1 µM
Nc1nonc1-c1nc2ccccc2n1CC(=O)c1cccc2ccccc12 [Example 41]	0.1 to 1 µM				0	0	2 (score 2 relating to strong activity comprising more than 70% of the cells)	0	0	2 (score 2 relating to strong activity comprising more than 70% of the cells)	0	0	2 (score 2 relating to strong activity comprising more than 70% of the cells)	0	0	0	0	0	1 (1 relating to weak activity comprising less than 70% of the cells)	0.1 to 1 µM	IC50 (HT1080): 0.1 to 1 µM; IC50 (HeLa): 0.1 to 1 µM; IC50 (Jurkat): 0.1 to 1 µM

From USRE42890E1, “Furazanobenzimidazoles” (Basilea Pharmaceutica AG, priority 2003, dated 2011)
